In US20110294778A1, “HEPATITIS C INHIBITOR COMPOUNDS” (priority 2009, published 2011):

Experiments:
[1] = system: HCV genotype 1a (strain H77) subgenomic replicon with NS3 resistance mutation R155K in Huh-7 cells; test: HCV replicon RNA replication assay (NS3 protease variants), genotype 1a R155K; type: cell-based; details: Hepatitis C virus, Huh-7, 72 h, read-out: R155K 1a EC50 (nM)
[2] = system: HCV genotype 1b (Con-1) subgenomic replicon with NS3 resistance mutation D168V in Huh-7 cells; test: HCV replicon RNA replication assay (NS3 protease variants), genotype 1b D168V; type: cell-based; details: Hepatitis C virus, Huh-7, 72 h, read-out: D168V 1b EC50 (nM)

SMILES | EC50 [1] | EC50 [2]
COc1ccc2c(O[C@@H]3C[C@H]4C(=O)N[C@]5(C(=O)NS(=O)(=O)C6(C)CC6)C[C@H]5/C=C\CCCCC[C@H](NC(=O)N5CCC5)C(=O)N4C3)cc(OC(C)C)nc2c1C [Compound 2001, (2R,6S,12Z,13aS,14aR,16aS)-6-[(azetidin-1-ylcarbonyl)amino]-2-{[7-methoxy-8-methyl-2-(propan-2-yloxy)quinolin-4-yl]oxy}-N-[(1-methylcyclopropyl)sulfonyl]-5,16-dioxo-1,2,3,6,7,8,9,10,11,13a,14,15,16,16a-tetradecahydrocyclopropa[e]pyrrolo[1,2-a][1,4]diazacyclopentadecine-14a(5H)-carboxamide] | 2.3 nM | 0.48 nM
COc1c(F)ccc2c(O[C@@H]3C[C@H]4C(=O)N[C@]5(C(=O)NS(=O)(=O)C6(C)CC6)C[C@H]5/C=C\CCCCC[C@H](NC(=O)N(C)C)C(=O)N4C3)cc(OC(C)C)nc12 [Compound 2002, (2R,6S,12Z,13aS,14aR,16aS)-6-[(dimethylcarbamoyl)amino]-2-{[7-fluoro-8-methoxy-2-(propan-2-yloxy)quinolin-4-yl]oxy}-N-[(1-methylcyclopropyl)sulfonyl]-5,16-dioxo-1,2,3,6,7,8,9,10,11,13a,14,15,16,16a-tetradecahydrocyclopropa[e]pyrrolo[1,2-a][1,4]diazacyclopentadecine-14a(5H)-carboxamide] | 4.7 nM | 0.41 nM
COc1ccc2c(O[C@@H]3C[C@H]4C(=O)N[C@]5(C(=O)NS(=O)(=O)C6(C)CC6)C[C@H]5/C=C\CCCCC[C@H](NC(=O)N5CC(OC)C5)C(=O)N4C3)cc(OC(C)C)nc2c1C [Compound 2003, (2R,6S,12Z,13aS,14aR,16aS)-6-{[(3-methoxyazetidin-1-yl)carbonyl]amino}-2-{[7-methoxy-8-methyl-2-(propan-2-yloxy)quinolin-4-yl]oxy}-N-[(1-methylcyclopropyl)sulfonyl]-5,16-dioxo-1,2,3,6,7,8,9,10,11,13a,14,15,16,16a-tetradecahydrocyclopropa[e]pyrrolo[1,2-a][1,4]diazacyclopentadecine-14a(5H)-carboxamide] | 9.1 nM | 0.47 nM
COc1ccc2c(O[C@@H]3C[C@H]4C(=O)N[C@]5(C(=O)NS(=O)(=O)C6(C)CC6)C[C@H]5/C=C\CCCCC[C@H](NC(=O)N5CCC(F)(F)C5)C(=O)N4C3)cc(OC(C)C)nc2c1C [Compound 2004, (2R,6S,12Z,13aS,14aR,16aS)-6-{[(3,3-difluoropyrrolidin-1-yl)carbonyl]amino}-2-{[7-methoxy-8-methyl-2-(propan-2-yloxy)quinolin-4-yl]oxy}-N-[(1-methylcyclopropyl)sulfonyl]-5,16-dioxo-1,2,3,6,7,8,9,10,11,13a,14,15,16,16a-tetradecahydrocyclopropa[e]pyrrolo[1,2-a][1,4]diazacyclopentadecine-14a(5H)-carboxamide] | 8.2 nM | 1.6 nM
COc1ccc2c(O[C@@H]3C[C@H]4C(=O)N[C@]5(C(=O)NS(=O)(=O)C6CC6)C[C@H]5/C=C\CCCCC[C@H](NC(=O)N5CCC5)C(=O)N4C3)cc(OC(C)C)nc2c1C [Compound 2005, (2R,6S,12Z,13aS,14aR,16aS)-6-[(azetidin-1-ylcarbonyl)amino]-N-(cyclopropylsulfonyl)-2-{[7-methoxy-8-methyl-2-(propan-2-yloxy)quinolin-4-yl]oxy}-5,16-dioxo-1,2,3,6,7,8,9,10,11,13a,14,15,16,16a-tetradecahydrocyclopropa[e]pyrrolo[1,2-a][1,4]diazacyclopentadecine-14a(5H)-carboxamide] | 4.8 nM | 0.82 nM
CCOc1cc(O[C@@H]2C[C@H]3C(=O)N[C@]4(C(=O)NS(=O)(=O)C5(C)CC5)C[C@H]4/C=C\CCCCC[C@H](NC(=O)N(C)C)C(=O)N3C2)c2ccc(OC)c(C)c2n1 [Compound 2006, (2R,6S,12Z,13aS,14aR,16aS)-6-[(dimethylcarbamoyl)amino]-2-[(2-ethoxy-7-methoxy-8-methylquinolin-4-yl)oxy]-N-[(1-methylcyclopropyl)sulfonyl]-5,16-dioxo-1,2,3,6,7,8,9,10,11,13a,14,15,16,16a-tetradecahydrocyclopropa[e]pyrrolo[1,2-a][1,4]diazacyclopentadecine-14a(5H)-carboxamide] | 9.9 nM | 2.1 nM
COc1ccc2c(O[C@@H]3C[C@H]4C(=O)N[C@]5(C(=O)NS(=O)(=O)C6CC6)C[C@H]5/C=C\CCCCC[C@H](NC(=O)N5CC(F)C5)C(=O)N4C3)cc(OC(C)C)nc2c1C [Compound 2007, (2R,6S,12Z,13aS,14aR,16aS)-N-(cyclopropylsulfonyl)-6-{[(3-fluoroazetidin-1-yl)carbonyl]amino}-2-{[7-methoxy-8-methyl-2-(propan-2-yloxy)quinolin-4-yl]oxy}-5,16-dioxo-1,2,3,6,7,8,9,10,11,13a,14,15,16,16a-tetradecahydrocyclopropa[e]pyrrolo[1,2-a][1,4]diazacyclopentadecine-14a(5H)-carboxamide] | 9 nM | 0.71 nM
COc1ccc2c(O[C@@H]3C[C@H]4C(=O)N[C@]5(C(=O)NS(=O)(=O)C6(C)CC6)C[C@H]5/C=C\CCCCC[C@H](NC(=O)N(C)C)C(=O)N4C3)cc(OC(C)C)nc2c1C [Compound 2008, (2R,6S,12Z,13aS,14aR,16aS)-6-[(dimethylcarbamoyl)amino]-2-{[7-methoxy-8-methyl-2-(propan-2-yloxy)quinolin-4-yl]oxy}-N-[(1-methylcyclopropyl)sulfonyl]-5,16-dioxo-1,2,3,6,7,8,9,10,11,13a,14,15,16,16a-tetradecahydrocyclopropa[e]pyrrolo[1,2-a][1,4]diazacyclopentadecine-14a(5H)-carboxamide] | 6.7 nM | 1.5 nM
COc1ccc2c(O[C@@H]3C[C@H]4C(=O)N[C@]5(C(=O)NS(=O)(=O)C6(C)CC6)C[C@H]5/C=C\CCCCC[C@H](NC(=O)N5CC(C)(OC)C5)C(=O)N4C3)cc(OC(C)C)nc2c1C [Compound 2009, (2R,6S,12Z,13aS,14aR,16aS)-6-{[(3-methoxy-3-methylazetidin-1-yl)carbonyl]amino}-2-{[7-methoxy-8-methyl-2-(propan-2-yloxy)quinolin-4-yl]oxy}-N-[(1-methylcyclopropyl)sulfonyl]-5,16-dioxo-1,2,3,6,7,8,9,10,11,13a,14,15,16,16a-tetradecahydrocyclopropa[e]pyrrolo[1,2-a][1,4]diazacyclopentadecine-14a(5H)-carboxamide] | 6.8 nM | 2.9 nM
COc1ccc2c(O[C@@H]3C[C@H]4C(=O)N[C@]5(C(=O)NS(=O)(=O)C6(C)CC6)C[C@H]5/C=C\CCCCC[C@H](NC(=O)N5CCC5)C(=O)N4C3)cc(OC3CC3)nc2c1C [Compound 2010, (2R,6S,12Z,13aS,14aR,16aS)-6-[(azetidin-1-ylcarbonyl)amino]-2-{[2-(cyclopropyloxy)-7-methoxy-8-methylquinolin-4-yl]oxy}-N-[(1-methylcyclopropyl)sulfonyl]-5,16-dioxo-1,2,3,6,7,8,9,10,11,13a,14,15,16,16a-tetradecahydrocyclopropa[e]pyrrolo[1,2-a][1,4]diazacyclopentadecine-14a(5H)-carboxamide] | 6.4 nM | 0.66 nM
COc1ccc2c(O[C@@H]3C[C@H]4C(=O)N[C@]5(C(=O)NS(=O)(=O)C6CC6)C[C@H]5/C=C\CCCCC[C@H](NC(=O)N5CC(C)(C)C5)C(=O)N4C3)cc(OC(C)C)nc2c1C [Compound 2011, (2R,6S,12Z,13aS,14aR,16aS)-N-(cyclopropylsulfonyl)-6-{[(3,3-dimethylazetidin-1-yl)carbonyl]amino}-2-{[7-methoxy-8-methyl-2-(propan-2-yloxy)quinolin-4-yl]oxy}-5,16-dioxo-1,2,3,6,7,8,9,10,11,13a,14,15,16,16a-tetradecahydrocyclopropa[e]pyrrolo[1,2-a][1,4]diazacyclopentadecine-14a(5H)-carboxamide] | 6.1 nM | 3.9 nM
COc1ccc2c(O[C@@H]3C[C@H]4C(=O)N[C@]5(C(=O)NS(=O)(=O)C6(C)CC6)C[C@H]5/C=C\CCCCC[C@H](NC(=O)N(C)C)C(=O)N4C3)cc(OC3CC3)nc2c1C [Compound 2012, (2R,6S,12Z,13aS,14aR,16aS)-2-{[2-(cyclopropyloxy)-7-methoxy-8-methylquinolin-4-yl]oxy}-6-[(dimethylcarbamoyl)amino]-N-[(1-methylcyclopropyl)sulfonyl]-5,16-dioxo-1,2,3,6,7,8,9,10,11,13a,14,15,16,16a-tetradecahydrocyclopropa[e]pyrrolo[1,2-a][1,4]diazacyclopentadecine-14a(5H)-carboxamide] | 9.9 nM | 1.8 nM
COc1ccc2c(O[C@@H]3C[C@H]4C(=O)N[C@]5(C(=O)NS(=O)(=O)C6(C)CC6)C[C@H]5/C=C\CCCCC[C@H](NC(=O)N5CC(C)(O)C5)C(=O)N4C3)cc(OC(C)C)nc2c1C [Compound 2013, (2R,6S,12Z,13aS,14aR,16aS)-6-{[(3-hydroxy-3-methylazetidin-1-yl)carbonyl]amino}-2-{[7-methoxy-8-methyl-2-(propan-2-yloxy)quinolin-4-yl]oxy}-N-[(1-methylcyclopropyl)sulfonyl]-5,16-dioxo-1,2,3,6,7,8,9,10,11,13a,14,15,16,16a-tetradecahydrocyclopropa[e]pyrrolo[1,2-a][1,4]diazacyclopentadecine-14a(5H)-carboxamide] | 6.5 nM | 3.3 nM
CCOc1cc(O[C@@H]2C[C@H]3C(=O)N[C@]4(C(=O)NS(=O)(=O)C5(C)CC5)C[C@H]4/C=C\CCCCC[C@H](NC(=O)N4CC(F)C4)C(=O)N3C2)c2ccc(OC)c(C)c2n1 [Compound 2014, (2R,6S,12Z,13aS,14aR,16aS)-2-[(2-ethoxy-7-methoxy-8-methylquinolin-4-yl)oxy]-6-{[(3-fluoroazetidin-1-yl)carbonyl]amino}-N-[(1-methylcyclopropyl)sulfonyl]-5,16-dioxo-1,2,3,6,7,8,9,10,11,13a,14,15,16,16a-tetradecahydrocyclopropa[e]pyrrolo[1,2-a][1,4]diazacyclopentadecine-14a(5H)-carboxamide] | 8.4 nM | 0.53 nM
